Experimental data as given in US5139945A, “Thermostable alginate lyase from Bacillus steraothermophilus” (Novo Industri A/S, priority 1988, dated 1992).

Tested on: Alginate lyase from Bacillus stearothermophilus
Assay: Effects of chemicals commonly used in water cooling systems on alginate lyase activity
Format: biochemical
Details: for Inhibition (%) of Chemicals on Enzyme Activity: chemical at 10 mM final concentration, 16 hours incubation; for inhibition of the enzyme (in words): mineral content of cooling water
Description: Alginate lyase activity (increase in optical density at 230 nm) at 55° C. was monitored with sodium alginate as the substrate. Constant amounts of substrate, enzyme and MgCl2 (10 mM) were present in all reactions. Citrate-phosphate buffer was used between pH 5.0 and 6.5 and phosphate buffer was used between pH 6.0 and 8.0.
EDTA (ethylene diamine tetraacetate), NaCl, FeSO4, NaAlO2, Na2 MoO4, Zn, glutaraldehyde hydrazine and sodium nitrite were tested at the final concentration of 10 mM. Alginate lyase activity was monitored as described in Example 2 over 16 hours incubation.

| Inhibition (%) of Chemicals on Enzyme Activity | SMILES | inhibition of the enzyme (in words) |
| --- | --- | --- |
| 0% | O=C(O)CN(CCN(CC(=O)O)CC(=O)O)CC(=O)O [EDTA, ethylene diamine tetraacetate] | – |
| 0% | [Na+].[Na+].[O]=[Mo](=[O])([O-])[O-] [Na2 MoO4] | – |
| 0% | [Na+].[O]=[Al-]=[O] [NaAlO2] | – |
| 43.7% | [Zn] [Zn] | partially inhibit |
| 0% | O=CCCCC=O [glutaraldehyde] | – |

| SMILES | Inhibition (%) of Chemicals on Enzyme Activity | inhibition of the enzyme (in words) |
| --- | --- | --- |
| O=S(=O)([O-])[O-].[Fe+2] [FeSO4] | 0% | – |
| [Cl-].[Na+] [NaCl] | 48.7% | partially inhibit |
| O=N[O-].[Na+] [NaNO2, sodium nitrite] | 0% | – |
| NN [hydrazine] | 0% | – |
